Data published in the supplement of paper PMC10307832.

Assays:
Experiment in all cases: relative viability (nuclei count vs DMSO), 5 days (fraction); higher = more cells survive
[1] = system: NCI-H650
Outline: (§1)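 After 5 days of treatment, lung cancer cells in 1536-well plates were fixed and stained in a single step (final 0.05% Triton X-100, 1% formaldehyde, 1 ug/ml Hoechst) and their nuclei counted on 4× images. Treatment had been applied by pin tool the day after seeding as one drug alone or as a fixed anchor-drug dose with five library-drug doses (not always all listed) in √10 steps. Relative viability is the nuclei count of treated wells divided by that of vehicle wells, and values are medians of duplicate plates.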

[2] = system: LCLC-97TM1
Outline: as §1

[3] = system: NCI-H596
Outline: as §1

[4] = system: NCI-H1944
Outline: as §1

[5] = system: LC-2-ad
Outline: as §1

[6] = system: NCI-H460
Outline: as §1

[7] = system: NCI-H1651
Outline: as §1

[8] = system: PC-3 [JPC-3]
Outline: as §1

[9] = system: BEN
Outline: as §1

[10] = system: CAL-12T
Outline: as §1

[11] = system: NCI-H727
Outline: as §1

CC(=O)O[C@@]12CO[C@@H]1C[C@H](O)[C@@]1(C)C(=O)[C@H](O)C3=C(C)[C@@H](OC(=O)[C@H](O)[C@@H](NC(=O)OC(C)(C)C)c4ccccc4)C[C@@](O)([C@@H](OC(=O)c4ccccc4)[C@H]21)C3(C)C [Docetaxel] + C[C@]1(O)C[C@@H](c2nc(-c3ccc4ccc(-c5ccccc5)nc4c3)c3c(N)nccn32)C1 [Linsitinib] (partner 1 µM)
relative viability ([1]; first compound 0.0002 µM): 0.657
relative viability ([1]; first compound 0.000632 µM): 0.341
relative viability ([1]; first compound 0.002 µM): 0.312
relative viability ([1]; first compound 0.006325 µM): 0.255
relative viability ([1]; first compound 0.02 µM): 0.152
relative viability ([2]; first compound 0.000632 µM): 0.153
relative viability ([2]; first compound 0.002 µM): 0.155
relative viability ([2]; first compound 0.006325 µM): 0.144
relative viability ([2]; first compound 0.02 µM): 0.112
relative viability ([3]; first compound 0.0002 µM): 1.02
relative viability ([3]; first compound 0.000632 µM): 0.953
relative viability ([3]; first compound 0.002 µM): 0.754
relative viability ([3]; first compound 0.006325 µM): 0.761
relative viability ([3]; first compound 0.02 µM): 0.437
relative viability ([4]; first compound 0.0002 µM): 1.11
relative viability ([4]; first compound 0.000632 µM): 1.13
relative viability ([4]; first compound 0.002 µM): 1.18
relative viability ([4]; first compound 0.006325 µM): 0.349
relative viability ([4]; first compound 0.02 µM): 0.208
relative viability ([5]; first compound 0.0002 µM): 0.714
relative viability ([5]; first compound 0.000632 µM): 0.223
relative viability ([5]; first compound 0.002 µM): 0.185
relative viability ([5]; first compound 0.006325 µM): 0.159
relative viability ([5]; first compound 0.02 µM): 0.112
relative viability ([6]; first compound 0.0002 µM): 0.715
relative viability ([6]; first compound 0.000632 µM): 0.153
relative viability ([6]; first compound 0.002 µM): 0.0174
relative viability ([6]; first compound 0.006325 µM): 0.0113
relative viability ([6]; first compound 0.02 µM): 0.0074
relative viability ([7]; first compound 0.0002 µM): 0.876
relative viability ([7]; first compound 0.000632 µM): 0.746
relative viability ([7]; first compound 0.002 µM): 0.229
relative viability ([7]; first compound 0.006325 µM): 0.112
relative viability ([7]; first compound 0.02 µM): 0.117
relative viability ([8]; first compound 0.0002 µM): 0.983
relative viability ([8]; first compound 0.000632 µM): 0.96
relative viability ([8]; first compound 0.002 µM): 0.863
relative viability ([8]; first compound 0.006325 µM): 0.37
relative viability ([8]; first compound 0.02 µM): 0.184
relative viability ([9]; first compound 0.0002 µM): 0.827
relative viability ([9]; first compound 0.000632 µM): 0.812
relative viability ([9]; first compound 0.002 µM): 0.473
relative viability ([9]; first compound 0.006325 µM): 0.246
relative viability ([9]; first compound 0.02 µM): 0.189
relative viability ([10]; first compound 0.0002 µM): 0.725
relative viability ([10]; first compound 0.000632 µM): 0.694
relative viability ([10]; first compound 0.002 µM): 0.303
relative viability ([10]; first compound 0.006325 µM): 0.184
relative viability ([10]; first compound 0.02 µM): 0.14
relative viability ([11]; first compound 0.0002 µM): 0.384
relative viability ([11]; first compound 0.000632 µM): 0.307
